Assay results from patent US9688695B2, “Imidazothiadiazole and imidazopyrazine derivatives as protease activated receptor 4 (PAR4) inhibitors for treating platelet aggregation” (BRISTOL-MYERS SQUIBB COMPANY, priority 2012, dated 2017).
Structures can show the parent of a compound that is named as a salt.

Molecular target: PAR4 (Homo sapiens (Human), UniProt Q96RI0)
Assay: FLIPR assay in PAR4-expressing HEK293 cells (PAR4 antagonist activity, calcium mobilization)
Format: cell-based
Conditions: H-Ala-Phe(4-F)-Pro-Gly-Trp-Leu-Val-Lys-Asn-Gly-NH2-induced calcium mobilization
In short: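 HEK293 EBNA cells stably expressing human PAR4 (also endogenous PAR1) preincubated 30 min at room temperature with compound in HBSS/10 mM HEPES, 0.67% DMSO final. PAR4 agonist peptide then added and intracellular calcium mobilization monitored by fluorescence.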

Sequence of PAR4 (Q96RI0 18-385): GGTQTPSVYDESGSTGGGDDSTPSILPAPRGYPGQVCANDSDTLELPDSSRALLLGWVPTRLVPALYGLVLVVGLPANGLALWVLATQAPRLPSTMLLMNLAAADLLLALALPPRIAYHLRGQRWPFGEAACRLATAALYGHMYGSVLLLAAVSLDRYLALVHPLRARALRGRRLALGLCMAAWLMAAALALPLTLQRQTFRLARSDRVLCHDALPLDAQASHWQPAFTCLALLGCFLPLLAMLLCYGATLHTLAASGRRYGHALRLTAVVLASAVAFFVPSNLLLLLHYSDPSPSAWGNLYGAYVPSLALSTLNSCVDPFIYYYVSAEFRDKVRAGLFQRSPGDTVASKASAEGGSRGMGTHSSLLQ

SMILES	EC50 [nM]
COc1cc(OCc2csc(C3(c4ccccc4)CCOCC3)n2)c2cc(-c3cn4nc(OC)sc4n3)oc2c1 [Example 162, 2-Methoxy-6-(6-methoxy-4-((2-(4-phenyltetrahydro-2H-pyran-4-yl)thiazol-4-yl)methoxy)benzofuran-2-yl)imidazo[2,1-b][1,3,4]thiadiazole]	0.67
COc1cc(OCc2csc(C3(c4ccc(Cl)cc4)CCOC3)n2)c2cc(-c3cn4nc(OC)sc4n3)oc2c1 (centres unmarked) [Example 163, 6-(4-((2-(3-(4-Chlorophenyl)tetrahydrofuran-3-yl)thiazol-4-yl)methoxy)-6-methoxybenzofuran-2-yl)-2-methoxyimidazo[2,1-b][1,3,4]thiadiazole]	0.82
COc1cc(OCc2csc(C3(c4ccc(C)cc4)CCOC3)n2)c2cc(-c3cn4nc(OC)sc4n3)oc2c1 (centres unmarked) [Example 164, 2-Methoxy-6-(6-methoxy-4-((2-(3-(p-tolyl)tetrahydrofuran-3-yl)thiazol-4-yl)methoxy)benzofuran-2-yl)imidazo[2,1-b][1,3,4]thiadiazole]	1.3
COc1cc(OCc2csc(C3(c4cccc(Cl)c4)CCOC3)n2)c2cc(-c3cn4nc(OC)sc4n3)oc2c1 (centres unmarked) [Example 165, 6-(4-((2-(3-(3-Chlorophenyl)tetrahydrofuran-3-yl)thiazol-4-yl)methoxy)-6-methoxybenzofuran-2-yl)-2-methoxyimidazo[2,1-b][1,3,4]thiadiazole]	1.1
COc1cc(OCc2csc(C3(c4ccccc4F)CCOC3)n2)c2cc(-c3cn4nc(OC)sc4n3)oc2c1 (centres unmarked) [Example 166, 6-(4-((2-(3-(2-Fluorophenyl)tetrahydrofuran-3-yl)thiazol-4-yl)methoxy)-6-methoxybenzofuran-2-yl)-2-methoxyimidazo[2,1-b][1,3,4]thiadiazole]	0.97
COc1cc(OCc2csc(C3(C)CCOCC3)n2)c2cc(-c3cn4nc(OC)sc4n3)oc2c1 [Example 167, 2-Methoxy-6-(6-methoxy-4-((2-(4-methyltetrahydro-2H-pyran-4-yl)thiazol-4-yl)methoxy)benzofuran-2-yl)imidazo[2,1-b][1,3,4]thiadiazole]	0.26
COc1cc(OCc2csc(C3CCOc4ccccc43)n2)c2cc(-c3cn4nc(OC)sc4n3)oc2c1 (centres unmarked) [Example 168, 6-(4-((2-(Chroman-4-yl)thiazol-4-yl)methoxy)-6-methoxybenzofuran-2-yl)-2-methoxyimidazo[2,1-b][1,3,4]thiadiazole]	0.28
COc1cc(OCc2csc(C3=CCOc4ccccc43)n2)c2cc(-c3cn4nc(OC)sc4n3)oc2c1 [Example 169, 6-(4-((2-(2H-Chromen-4-yl)thiazol-4-yl)methoxy)-6-methoxybenzofuran-2-yl)-2-methoxyimidazo[2,1-b][1,3,4]thiadiazole]	1.3
COc1cc(OCc2csc(C3(N[S@+]([O-])C(C)(C)C)CCOCC3)n2)c2cc(-c3cn4nc(OC)sc4n3)oc2c1 [Example 170, (R)-N-(4-(4-(((6-Methoxy-2-(2-methoxyimidazo[2,1-b][1,3,4]thiadiazol-6-yl)benzofuran-4-yl)oxy)methyl)thiazol-2-yl)tetrahydro-2H-pyran-4-yl)-2-methylpropane-2-sulfinamide]	1.7
COc1cc(OCc2csc(C3(NS(=O)(=O)C(C)(C)C)CCOCC3)n2)c2cc(-c3cn4nc(OC)sc4n3)oc2c1 [Example 171, N-(4-(4-(((6-Methoxy-2-(2-methoxyimidazo[2,1-b][1,3,4]thiadiazol-6-yl)benzofuran-4-yl)oxy)methyl)thiazol-2-yl)tetrahydro-2H-pyran-4-yl)-2-methylpropane-2-sulfonamide]	0.27
COc1cc(OCc2csc(C3(N)CCOCC3)n2)c2cc(-c3cn4nc(OC)sc4n3)oc2c1 [Example 172, 4-(4-(((6-Methoxy-2-(2-methoxyimidazo[2,1-b][1,3,4]thiadiazol-6-yl)benzofuran-4-yl)oxy)methyl)thiazol-2-yl)tetrahydro-2H-pyran-4-amine, HCl]	0.94
COc1cc(OCc2csc(C3(NC(=O)CNC(=O)OC(C)(C)C)CCOCC3)n2)c2cc(-c3cn4nc(OC)sc4n3)oc2c1 [Example 173, tert-Butyl (2-((4-(4-(((6-methoxy-2-(2-methoxyimidazo-[2,1-b][1,3,4]thiadiazol-6-yl)benzofuran-4-yl)oxy)methyl)-thiazol-2-yl)tetrahydro-2H-pyran-4-yl)amino)-2-oxoethyl)carbamate]	0.67
COc1cc(OCc2csc(C3(NC(=O)CN(C)C)CCOCC3)n2)c2cc(-c3cn4nc(OC)sc4n3)oc2c1 [Example 174, 2-(Dimethylamino)-N-(4-(4-(((6-methoxy-2-(2-methoxyimidazo[2,1-b][1,3,4]thiadiazol-6-yl)benzofuran-4-yl)oxy)methyl)-thiazol-2-yl)tetrahydro-2H-pyran-4-yl)acetamide]	24
COc1cc(OCc2csc(C(C)(C)c3ccccc3)n2)c2cc(-c3cn4nc(OC)sc4n3)oc2c1 [Example 175, 2-Methoxy-6-(6-methoxy-4-((2-(2-phenylpropan-2-yl)thiazol-4-yl)methoxy)benzofuran-2-yl)imidazo[2,1-b][1,3,4]thiadiazole]	1.4
COc1cc(OCc2csc(C(C)(C)c3ccc(Cl)cc3)n2)c2cc(-c3cn4nc(OC)sc4n3)oc2c1 [Example 176, 6-(4-((2-(2-(4-Chlorophenyl)propan-2-yl)thiazol-4-yl)methoxy)-6-methoxybenzofuran-2-yl)-2-methoxyimidazo[2,1-b][1,3,4]thiadiazole]	1.3
COc1cc(OCc2csc(C3(c4cccnc4)CCC3)n2)c2cc(-c3cn4nc(OC)sc4n3)oc2c1 [Example 177, 2-Methoxy-6-(6-methoxy-4-((2-(1-(pyridin-3-yl)cyclobutyl)thiazol-4-yl)methoxy)benzofuran-2-yl)imidazo[2,1-b][1,3,4]thiadiazole]	0.61
C=C(c1cncnc1)c1nc(COc2cc(OC)cc3oc(-c4cn5nc(OC)sc5n4)cc23)cs1 [Example 178, 2-Methoxy-6-(6-methoxy-4-((2-(1-(pyrimidin-5-yl)vinyl)thiazol-4-yl)methoxy)benzofuran-2-yl)imidazo[2,1-b][1,3,4]thiadiazole]	0.87
CCN(CCC#N)C(=O)c1ccc(-c2nc(COc3cc(F)cc4oc(-c5cn6nc(OC)sc6n5)cc34)cs2)cc1 [Example 180, N-(2-Cyanoethyl)-N-ethyl-4-(4-(((6-fluoro-2-(2-methoxyimidazo[2,1-b][1,3,4]thiadiazol-6-yl)benzofuran-4-yl)oxy)methyl)thiazol-2-yl)benzamide]	0.47

Next, values leading:

EC50 [nM]	SMILES
0.72	COc1nn2cc(-c3cc4c(OCc5csc(-c6ccc(C(=O)NCC(F)(F)F)cc6)n5)cc(F)cc4o3)nc2s1 [Example 181, 4-(4-(((6-Fluoro-2-(2-methoxyimidazo[2,1-b][1,3,4]thiadiazol-6-yl)benzofuran-4-yl)oxy)methyl)thiazol-2-yl)-N-(2,2,2-trifluoroethyl)benzamide]
0.3	COc1nn2cc(-c3cc4c(OCc5csc(-c6ccc(C(=O)N(C)C(C)(C)C)cc6)n5)cc(F)cc4o3)nc2s1 [Example 182, N-(tert-Butyl)-4-(4-(((6-fluoro-2-(2-methoxyimidazo[2,1-b][1,3,4]thiadiazol-6-yl)benzofuran-4-yl)oxy)methyl)thiazol-2-yl)-N-methylbenzamide]
0.36	COc1nn2cc(-c3cc4c(OCc5csc(-c6ccc(C(=O)N7CCCC7)cc6)n5)cc(F)cc4o3)nc2s1 [Example 183, (4-(4-(((6-Fluoro-2-(2-methoxyimidazo[2,1-b][1,3,4]thiadiazol-6-yl)benzofuran-4-yl)oxy)methyl)thiazol-2-yl)phenyl)(pyrrolidin-1-yl)methanone]
0.38	COc1nn2cc(-c3cc4c(OCc5csc(-c6ccc(C(=O)N(C)CC#N)cc6)n5)cc(F)cc4o3)nc2s1 [Example 184, N-(Cyanomethyl)-4-(4-(((6-fluoro-2-(2-methoxyimidazo[2,1-b][1,3,4]thiadiazol-6-yl)benzofuran-4-yl)oxy)methyl)thiazol-2-yl)-N-methylbenzamide]
0.41	COc1nn2cc(-c3cc4c(OCc5csc(-c6ccc(C(=O)N(C)C)cc6)n5)cc(F)cc4o3)nc2s1 [Example 185, 4-(4-(((6-Fluoro-2-(2-methoxyimidazo[2,1-b][1,3,4]thiadiazol-6-yl)benzofuran-4-yl)oxy)methyl)thiazol-2-yl)-N,N-dimethylbenzamide]
0.58	CNC(=O)c1ccc(-c2nc(COc3cc(F)cc4oc(-c5cn6nc(OC)sc6n5)cc34)c(C)s2)cc1 [Example 186, 4-(4-(((6-Fluoro-2-(2-methoxyimidazo[2,1-b][1,3,4]thiadiazol-6-yl)benzofuran-4-yl)oxy)methyl)-5-methylthiazol-2-yl)-N-methylbenzamide]
1.6	COc1nn2cc(-c3cc4c(OCc5csc(-c6ccccc6)n5)cc(Cl)cc4o3)nc2s1 [Example 187, 6-(6-Chloro-4-((2-phenylthiazol-4-yl)methoxy)benzofuran-2-yl)-2-methoxyimidazo[2,1-b][1,3,4]thiadiazole]
0.85	COc1nn2cc(-c3cc4c(OCc5csc(-c6ccc(Cl)cc6)n5)cc(Cl)cc4o3)nc2s1 [Example 188, 6-(6-Chloro-4-((2-(4-chlorophenyl)thiazol-4-yl)methoxy)benzofuran-2-yl)-2-methoxyimidazo[2,1-b][1,3,4]thiadiazole]
1.3	COc1nn2cc(-c3cc4c(OCc5csc(-c6cccc(C)c6)n5)cc(Cl)cc4o3)nc2s1 [Example 189, 6-(6-Chloro-4-((2-(m-tolyl)thiazol-4-yl)methoxy)benzofuran-2-yl)-2-methoxyimidazo[2,1-b][1,3,4]thiadiazole]
0.47	COc1nn2cc(-c3cc4c(OCc5csc(C6(F)CCOCC6)n5)cc(Cl)cc4o3)nc2s1 [Example 190]
2.6	COc1nn2cc(-c3cc4c(OCc5csc(-c6ccccc6)n5)cccc4o3)nc2s1 [Example 191, 2-Methoxy-6-(4-((2-phenylthiazol-4-yl)methoxy)benzofuran-2-yl)imidazo[2,1-b][1,3,4]thiadiazole]
